# Reference: patent US9708314B2, “Heterocyclic amide compound” (NISSAN CHEMICAL INDUSTRIES, LTD., priority 2013, dated 2017)
# What was measured:
# Format in all cases: in vivo
# [1] = system: Echinochloa oryzacola Vasing.; experiment: Test Example 1: herbicidal activity, application before weed generation in submerged conditions; details: Application herbicide amount 320 g/ha; Seventeenth Table
# Method in brief: (§1)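 Water-diluted emulsion formulation is applied onto flood water (4 cm deep) covering alluvial soil on the day weed seeds are sown, after transplanting 2.5 leaf stage rice. Rates are expressed per hectare. Injury or control is graded 0–5 three weeks later.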
# [2] = system: Scirpus juncoides; experiment: as above; details: Application herbicide amount 320 g/ha; Seventeenth Table
# Method in brief: as §1
# [3] = system: Monochoria vaginalis; experiment: as above; details: Application herbicide amount 320 g/ha; Seventeenth Table
# Method in brief: as §1
# [4] = system: directly sowed Oryza sativa; experiment: Test Example 3: effect on crop by application to foliage (Wagner pot, water depth 0.1-0.5 cm); details: Nineteenth Table; application to foliage; application herbicide amount 320 g/ha
# Method in brief: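 Foliar spray, 14-day-old plants, emulsion diluted to target g/ha; rated 3 wk post-application, 0–5 scale (0 ≤5%, 5 ≥90% herbicidal ratio). Greenhouse 25–30 °C, alluvial soil.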
# [5] = system: transplanted Oryza sativa; experiment: Test Example 1: effect on crop, application before weed generation in submerged conditions; details: Application herbicide amount 320 g/ha; Seventeenth Table
# Method in brief: as §1
smiles,measurement,setting,value
Cc1nnc(NC(=O)c2ccc(C(F)(F)F)n3c(N(C)C)nnc23)o1 [1-076],A: Echinochloa oryzicola Vasing. (herbicidal effect grade),[1],5 (Herbicidal ratio of 90% or more (almost completely withered))
same,B: Scirpus juncoides (herbicidal effect grade),[2],4 (Herbicidal ratio of 70% or more and less than 90%)
same,C: Monochoria vaginalis (herbicidal effect grade),[3],4 (Herbicidal ratio of 70% or more and less than 90%)
same,b (effect on crop grade),[4],3 (Herbicidal ratio of 40% or more and less than 70%)
same,a: transplanted Oryza sativa (effect on crop grade),[5],3 (Herbicidal ratio of 40% or more and less than 70%)
Cc1nnc(NC(=O)c2ccc(C(F)(F)F)n3c(C(C)[S+](C)[O-])nnc23)o1 (stereo not drawn) [1-079],A: Echinochloa oryzicola Vasing. (herbicidal effect grade),[1],4 (Herbicidal ratio of 70% or more and less than 90%)
same,B: Scirpus juncoides (herbicidal effect grade),[2],4 (Herbicidal ratio of 70% or more and less than 90%)
same,C: Monochoria vaginalis (herbicidal effect grade),[3],3 (Herbicidal ratio of 40% or more and less than 70%)
same,b (effect on crop grade),[4],5 (Herbicidal ratio of 90% or more (almost completely withered))
same,a: transplanted Oryza sativa (effect on crop grade),[5],4 (Herbicidal ratio of 70% or more and less than 90%)
C#CC[S+]([O-])c1nnc2c(C(=O)Nc3nnc(C)o3)ccc(C(F)(F)F)n12 (stereo not drawn) [1-077],A: Echinochloa oryzicola Vasing. (herbicidal effect grade),[1],0 (Herbicidal ratio of 5% or less (almost no effect))
same,B: Scirpus juncoides (herbicidal effect grade),[2],0 (Herbicidal ratio of 5% or less (almost no effect))
same,C: Monochoria vaginalis (herbicidal effect grade),[3],2 (Herbicidal ratio of 20% or more and less than 40%)
same,b (effect on crop grade),[4],0 (Herbicidal ratio of 5% or less (almost no effect))
same,a: transplanted Oryza sativa (effect on crop grade),[5],0 (Herbicidal ratio of 5% or less (almost no effect))
COCC[S+]([O-])c1nnc2c(C(=O)Nc3nnc(C)o3)ccc(C(F)(F)F)n12 (stereo not drawn) [1-073],A: Echinochloa oryzicola Vasing. (herbicidal effect grade),[1],4 (Herbicidal ratio of 70% or more and less than 90%)
same,B: Scirpus juncoides (herbicidal effect grade),[2],3 (Herbicidal ratio of 40% or more and less than 70%)
same,C: Monochoria vaginalis (herbicidal effect grade),[3],2 (Herbicidal ratio of 20% or more and less than 40%)
same,b (effect on crop grade),[4],4 (Herbicidal ratio of 70% or more and less than 90%)
same,a: transplanted Oryza sativa (effect on crop grade),[5],3 (Herbicidal ratio of 40% or more and less than 70%)
Cc1nnc(NC(=O)c2ccc(C(F)(F)F)n3c(N4CCOCC4)nnc23)o1 [1-096],A: Echinochloa oryzicola Vasing. (herbicidal effect grade),[1],5 (Herbicidal ratio of 90% or more (almost completely withered))
same,B: Scirpus juncoides (herbicidal effect grade),[2],4 (Herbicidal ratio of 70% or more and less than 90%)
same,C: Monochoria vaginalis (herbicidal effect grade),[3],4 (Herbicidal ratio of 70% or more and less than 90%)
same,b (effect on crop grade),[4],4 (Herbicidal ratio of 70% or more and less than 90%)
same,a: transplanted Oryza sativa (effect on crop grade),[5],3 (Herbicidal ratio of 40% or more and less than 70%)
CSC(C)c1nnc2c(C(=O)Nc3nnc(C)o3)ccc(C(F)(F)F)n12 (stereo not drawn) [1-078],A: Echinochloa oryzicola Vasing. (herbicidal effect grade),[1],4 (Herbicidal ratio of 70% or more and less than 90%)
same,B: Scirpus juncoides (herbicidal effect grade),[2],4 (Herbicidal ratio of 70% or more and less than 90%)
same,C: Monochoria vaginalis (herbicidal effect grade),[3],3 (Herbicidal ratio of 40% or more and less than 70%)
same,b (effect on crop grade),[4],5 (Herbicidal ratio of 90% or more (almost completely withered))
same,a: transplanted Oryza sativa (effect on crop grade),[5],4 (Herbicidal ratio of 70% or more and less than 90%)
